# Substitutions are numbered along the chain they refer to. Values joined by “and” are separate entries in the source; they are usually repeats but may differ in a detail not shown here. Equal values may be shown once.
# What was measured:
# Assay type in all cases: cell-based
# hTA1 I290Y = biological target: T1, hTA1 I290Y (Homo sapiens, UniProt Q96RJ0, I290Y); assay: GloSensor cAMP accumulation assay, I290Y mutant; conditions: for cAMP accumulation response, normalized (concentration-response source data, single replicate values): hTA1 I290Y (N=3), log[Compound];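 on cAMP accumulation response, normalized (concentration-response source data, single replicate values): normalized to the maximum response of β-PEA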
# T1 construct: expressed in transfected cells; host or cells: HEK293T
# T1 sequence (Q96RJ0 1-339 I290Y): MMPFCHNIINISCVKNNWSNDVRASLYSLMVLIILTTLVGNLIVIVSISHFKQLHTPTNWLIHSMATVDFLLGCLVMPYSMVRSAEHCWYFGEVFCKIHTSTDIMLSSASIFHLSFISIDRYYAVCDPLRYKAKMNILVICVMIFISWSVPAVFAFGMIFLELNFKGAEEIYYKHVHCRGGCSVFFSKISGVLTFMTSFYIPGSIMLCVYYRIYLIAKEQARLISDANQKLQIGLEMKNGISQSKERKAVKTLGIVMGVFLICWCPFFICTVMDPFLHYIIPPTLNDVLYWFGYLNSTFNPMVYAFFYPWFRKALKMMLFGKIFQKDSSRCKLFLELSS
# hTA1 W264F = biological target: T2, hTA1 W264F (Homo sapiens, UniProt Q96RJ0, W264F); assay: GloSensor cAMP accumulation assay, W264F mutant;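 further: cells transiently transfected with receptor plus GloSensor, luminescence read 30 min after agonist addition at room temperature, concentration-response curves fitted by log(agonist) vs response regression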
# T2 construct: expressed in transfected cells; host or cells: HEK293T
# T2 sequence (Q96RJ0 1-339 W264F): T1 sequence (Q96RJ0 1-339 I290Y) with W264F, Y290I
# hTA1 C96S = biological target: T3, hTA1 C96S (Homo sapiens, UniProt Q96RJ0, C96S); assay: GloSensor cAMP accumulation assay, C96S mutant; conditions: log[Compound]
# T3 construct: expressed in transfected cells; host or cells: HEK293T
# T3 sequence (Q96RJ0 1-339 C96S): T1 sequence (Q96RJ0 1-339 I290Y) with C96S, Y290I
# hTA1 T271N = biological target: T4, hTA1 T271N (Homo sapiens, UniProt Q96RJ0, T271N); assay: GloSensor cAMP accumulation assay, T271N mutant
# T4 construct: expressed in transfected cells; host or cells: HEK293T
# T4 sequence (Q96RJ0 1-339 T271N): T1 sequence (Q96RJ0 1-339 I290Y) with T271N, Y290I
# hTA1 F195T = biological target: T5, hTA1 F195T (Homo sapiens, UniProt Q96RJ0, F195T); assay: GloSensor cAMP accumulation assay, F195T mutant;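 further: cells transiently co-expressing HA-FLAG-tagged hTA1 and the GloSensor cAMP biosensor, luminescence read 30 min after agonist addition at room temperature, concentration-response fitted by nonlinear regression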
# T5 construct: expressed in transfected cells; host or cells: HEK293T
# T5 sequence (Q96RJ0 1-339 F195T): T1 sequence (Q96RJ0 1-339 I290Y) with F195T, Y290I
# [1] = biological target: T6, β2AR-Nterm-hTA1-F112^3.41W (CryoEM Construct) (Homo sapiens, UniProt Q96RJ0, F112W); assay: GloSensor cAMP accumulation assay, cryoEM construct;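 further: cells transiently co-transfected with the receptor construct and GloSensor cAMP biosensor, luminescence read after 30 min compound exposure at room temperature in the dark as cAMP accumulation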;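 on Normalized Luminescence Counts (N=2): normalized to the maximum response of β-PEA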
# T6 construct: FLAG (N); 10xHis (N); TEV protease site (N); expressed in transfected cells; host or cells: HEK293T
# T6 sequence (Q96RJ0 with tags, fused parts or gaps F112W): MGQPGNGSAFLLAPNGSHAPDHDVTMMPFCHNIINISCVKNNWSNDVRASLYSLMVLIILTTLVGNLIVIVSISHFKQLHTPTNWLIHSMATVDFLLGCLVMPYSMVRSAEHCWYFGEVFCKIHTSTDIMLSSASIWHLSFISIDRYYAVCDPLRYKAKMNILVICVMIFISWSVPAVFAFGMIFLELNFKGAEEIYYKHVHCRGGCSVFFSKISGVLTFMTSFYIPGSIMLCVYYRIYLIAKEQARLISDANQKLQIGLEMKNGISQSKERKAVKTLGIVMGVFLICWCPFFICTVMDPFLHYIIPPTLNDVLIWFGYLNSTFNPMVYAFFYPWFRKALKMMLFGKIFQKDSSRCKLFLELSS
# [2] = Cryo EM Construct minus WT average
# [3] = Cryo EM Construct, mean of each independent experiment (3 replicates)
structure (smiles),measurement,setting,value
Cc1c(F)cccc1[C@H]1COC(N)=N1 [Ro5263397],Span ± SEM (Emax normalized to β-PEA),hTA1 I290Y; I290Y,61.58 ± 3.99
same,pEC50 ± SEM,hTA1 I290Y; I290Y,9.16 ± 0.18
same,EC50,"hTA1 I290Y; I290Y, read-out: EC50",0.69 nM and 0.7 nM
same,"Emax values, Mean","hTA1 I290Y; I290Y, single experiments (3 replicates each), β-PEA = 100",59.7265 and 69.2263 and 55.7889
same,"cAMP accumulation response, normalized (concentration-response source data, single replicate values)",hTA1 I290Y; M = -5,77.8381 and 104.308 and 85.2251 and 91.2333 and 75.1101 and 85.0039 and 68.1063 and 86.1539 and 148.193
same,"cAMP accumulation response, normalized (concentration-response source data, single replicate values)",hTA1 I290Y; M = -5.522,49.5212 and 78.7614 and 62.4485 and 78.7745 and 74.7437 and 50.1924 and 55.6986 and 43.2908 and 39.9069
same,"cAMP accumulation response, normalized (concentration-response source data, single replicate values)",hTA1 I290Y; M = -6,40.5953 and 87.0718 and 61.2173 and 64.117 and 63.3841 and 61.5519 and 45.5468 (2×) and 50.0587
same,"cAMP accumulation response, normalized (concentration-response source data, single replicate values)",hTA1 I290Y; M = -6.522,56.6004 and 53.5225 and 48.9057 and 84.6375 and 52.7574 and 75.4765 and 66.9783 and 45.5468 and 38.7789
same,"cAMP accumulation response, normalized (concentration-response source data, single replicate values)",hTA1 I290Y; M = -7,35.3628 and 69.2199 and 41.5187 and 56.0554 and 64.117 and 50.9252 and 46.6748 and 39.9069 and 45.5468
same,"cAMP accumulation response, normalized (concentration-response source data, single replicate values)",hTA1 I290Y; M = -7.522,46.4433 and 76.2991 and 50.1368 and 60.819 and 63.0177 and 60.4526 and 39.9069 and 45.5468 and 47.8027
same,"cAMP accumulation response, normalized (concentration-response source data, single replicate values)",hTA1 I290Y; M = -8,61.8329 and 86.4562 and 67.9887 and 68.1478 and 70.3464 and 73.6443 and 36.523 and 37.651 and 32.0111
same,"cAMP accumulation response, normalized (concentration-response source data, single replicate values)",hTA1 I290Y; M = -8.522,54.7537 and 78.4536 and 76.2991 and 69.98 and 71.4457 and 63.7505 and 30.8831 and 33.1391 (2×)
same,"cAMP accumulation response, normalized (concentration-response source data, single replicate values)",hTA1 I290Y; M = -9,45.2122 and 78.7614 and 61.8329 and 45.0622 and 50.1924 and 56.0554 and 15.0915 and 19.6034 and 12.8355
same,"cAMP accumulation response, normalized (concentration-response source data, single replicate values)",hTA1 I290Y; M = -9.522,19.3577 and 32.5927 and 26.1291 and 49.4595 and 39.5657 and 25.2746 and 3.812 (2×) and 8.324
same,"cAMP accumulation response, normalized (concentration-response source data, single replicate values)",hTA1 I290Y; M = -10,27.9758 and 29.5148 and 27.3602 and 7.319 and 9.884 and 17.5794 and 0.4278 and 2.684 and 7.196
same,"cAMP accumulation response, normalized (concentration-response source data, single replicate values)",hTA1 I290Y; M = -10.522,6.738
same,ΔEmax values (each mutant value - WT average),hTA1 W264F; W246F mutant (so in the source) minus WT average,-34.1318
same,"pEC50 values, Mean","hTA1 W264F; W246F mutant (so in the source), each line an independent experiment, 3 replicates",5.605 and 5.96
same,"Emax values, Mean","hTA1 W264F; W246F mutant (so in the source), β-PEA = 100, each line an independent experiment, 3 replicates",52.5716 and 62.1592
same,decrease in potency vs wild type,hTA1 W264F; W264F,more than 1000 fold
same,Span ± SEM (Emax normalized to β-PEA),"hTA1 W264F; W264F, n=2",57.37 ± 4.79
same,pEC50 ± SEM,"hTA1 W264F; W264F, n=2",5.78 ± 0.06
same,Normalized Luminescence Counts,"hTA1 C96S; C96S, M = -5, single replicates (N=2)",9.313 (2×) and 10.6308 and 10.8582 and 5.048 and -2.698
same,Normalized Luminescence Counts,"hTA1 C96S; C96S, M = -5.522, single replicates (N=2)",2.723 and 6.018 and 1.4045 and 10.8582 and 101.879 and 20.5413
same,Normalized Luminescence Counts,"hTA1 C96S; C96S, M = -6, single replicates (N=2)",1.4045 (2×) and 2.064 and 3.112 and 14.7315 and -4.6346
same,Normalized Luminescence Counts,"hTA1 C96S; C96S, M = -6.522, single replicates (N=2)",-1.891 (2×) and 0.08646 and -2.698 (2×) and -0.7614
same,Normalized Luminescence Counts,"hTA1 C96S; C96S, M = -7, single replicates (N=2)",-0.5726 and 2.723 and -2.55 and 37.9707 and -8.508 and -4.6346
same,Normalized Luminescence Counts,"hTA1 C96S; C96S, M = -7.522, single replicates (N=2)",2.064 and 1.4045 and -1.232 and -2.698 and 12.7948 and -14.3176
same,Normalized Luminescence Counts,"hTA1 C96S; C96S, M = -8, single replicates (N=2)",-0.5726 and 0.08646 and -1.891 and 14.7315 (3×)
same,Normalized Luminescence Counts,"hTA1 C96S; C96S, M = -8.522, single replicates (N=2)",0.08646 and 2.064 and -1.232 and 22.4779 and 6.985 (2×)
same,Normalized Luminescence Counts,"hTA1 C96S; C96S, M = -9, single replicates (N=2)",-3.868 and 0.08646 and -3.209 and 10.8582 (3×)
same,Normalized Luminescence Counts,"hTA1 C96S; C96S, M = -9.522, single replicates (N=2)",-3.209 and 0.08646 and -5.186 and 1.175 and 3.112 (2×)
same,Normalized Luminescence Counts,"hTA1 C96S; C96S, M = -10, single replicates (N=2)",-3.209 and 0.08646 and -0.5726 and 28.2877 and 5.048 and 61.21
same,Normalized Luminescence Counts,"hTA1 C96S; C96S, M = -10.522, single replicates (N=2)",-2.55 and -0.5726 and -3.868 and -0.7614 (2×) and 1.175
same,Normalized Luminescence Counts,"hTA1 C96S; C96S, M = -11, single replicates (N=2)",0.7455 (2×) and 4.041 and 47.6538 and 53.4636 and 12.7948
same,Normalized Luminescence Counts,"hTA1 C96S; C96S, M = -11.522, single replicates (N=2)",2.064 and 4.7 and 0.08646 and 8.922
same,Normalized Luminescence Counts,"hTA1 C96S; M = -11.522, single replicates, mutant block above C178S",1.347 and 1.551 and 1.574 and 1.444 and 1.07 and 0.4821
same,Normalized Luminescence Counts,"hTA1 C96S; M = -12, single replicates, mutant block above C178S",2.211 and 3.099 and 1.62 and 0.7492 and 1.283 and 0.5889
same,Normalized Luminescence Counts,"hTA1 C96S; M = -12.522, single replicates, mutant block above C178S",0.07201 and 0.2541 and -0.1784 and 1.444 and 0.7492 and -0.5864
same,"ΔpEC50 values (each mutant value - WT average), Mean","hTA1 T271N; T271N mutant minus WT average, Figure 5B",-0.511 and -0.5494
same,"pEC50 values, Mean","hTA1 T271N; T271N mutant, Figure 5B, each row one independent experiment (3 replicates)",8.32 and 8.282
same,"Emax values, Mean","hTA1 T271N; T271N mutant, Figure 5B, β-PEA = 100, each row one independent experiment (3 replicates)",116.619 and 99.549
same,Span ± SEM (Emax normalized to β-PEA),"hTA1 T271N; T271N, n=2",108.08 ± 8.54
same,pEC50 ± SEM,"hTA1 T271N; T271N, n=2",8.3 ± 0.07
same,EC50,"hTA1 T271N; T271N, n=2, read-out: EC50",5 nM
same,"pEC50 values, Mean","hTA1 F195T; F195T mutant, Figure 5B, each row one independent experiment (3 replicates)",8.682 and 8.281
same,"Emax values, Mean","hTA1 F195T; F195T mutant, Figure 5B, β-PEA = 100, each row one independent experiment (3 replicates)",106.681 and 96.1093
same,Span ± SEM (Emax normalized to β-PEA),"hTA1 F195T; F195T, n=2",101.40 ± 5.29
same,pEC50 ± SEM,"hTA1 F195T; F195T, n=2",7.68 ± 0.60
same,EC50,"hTA1 F195T; F195T, n=2, read-out: EC50",20.9 nM
same,"ΔEmax values (each mutant value - WT average), Mean",[1]; [2],19.0137 and 21.294
same,"ΔpEC50 values (each mutant value - WT average), Mean",[1]; [2],-0.1667 and 0.1313
same,"Emax values, Mean",[1]; [3],-0.1667 and 0.1313
same,"pEC50 values, Mean",[1]; [3],8.664 and 8.962
same,Normalized Luminescence Counts (N=2),"[1]; CryoEM Construct, log[Compound], M = -5, single replicates",130.633 and 139.904 and 147.826 and 114.773
same,Span ± SEM (Emax normalized to β-PEA),"[1]; CryoEM Construct, n=2",106.6 ± 2.69
same,pEC50 ± SEM,"[1]; CryoEM Construct, n=2",8.82 ± 0.06
same,EC50,"[1]; CryoEM Construct, n=2, read-out: EC50",1.5 nM

# — article PMC10762035, “Molecular basis of human trace amine-associated receptor 1 activation” (Nature Communications, 2024)
